Read-outs that look alike come from different tables or passages of the source.
Experiments:
CK1 = CK1 33P kinase assay; assay type: biochemical
Procedure: (§1) All assays (25.5 μl) were carried out at room temperature (21° C.) and were linear with respect to time and enzyme concentrations under the conditions used. Assays were performed for 30 minutes except assays for LCK and PKB which were performed for 15 minutes using Multidrop Micro reagent dispensers (Thermo Electron Corporation, Waltham, Mass. 02454, USA) in a 96-well format. The concentration of […] [γ-^33P] ATP (800 cpm/pmol) in the assays was one of three concentrations (5, 20 or 50 μM) in order to be at or below Km for ATP for the enzyme. Assays were initiated with MgATP and stopped by addition of 5 μl of 0.5M orthophosphoric acid. Assays were then harvested onto P81 filterplates using a unifilter harvester (PerkinElmer, Boston, Mass. 02118, USA), with a wash buffer of 50 mM orthophosphoric acid. Filterplates were then air dried overnight. 10 μl of Microscint O was added per well prior to counting for radioactivity.

Lck = Lck (Homo sapiens, UniProt P06239); assay: Lck 33P kinase assay; assay type: biochemical; conditions: read-out: Lck activity as percentage of control without inhibitor; for remaining activity at 1 µM: inhibitor 1 μM
Chain of Lck (P06239 whole entry, species assumed): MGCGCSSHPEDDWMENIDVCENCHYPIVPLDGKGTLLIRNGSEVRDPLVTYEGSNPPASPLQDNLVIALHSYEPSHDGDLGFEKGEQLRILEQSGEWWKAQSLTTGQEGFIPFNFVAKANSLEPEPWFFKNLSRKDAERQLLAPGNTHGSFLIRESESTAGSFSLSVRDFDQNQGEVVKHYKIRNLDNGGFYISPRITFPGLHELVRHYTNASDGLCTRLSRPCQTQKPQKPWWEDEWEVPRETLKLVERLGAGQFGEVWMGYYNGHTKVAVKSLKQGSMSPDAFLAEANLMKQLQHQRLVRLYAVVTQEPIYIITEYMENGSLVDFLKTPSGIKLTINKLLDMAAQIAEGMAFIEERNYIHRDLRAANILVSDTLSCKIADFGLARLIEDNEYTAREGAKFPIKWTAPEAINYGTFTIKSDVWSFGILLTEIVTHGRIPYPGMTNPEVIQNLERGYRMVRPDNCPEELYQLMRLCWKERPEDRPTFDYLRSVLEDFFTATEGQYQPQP
Procedure: as §1, with “Assays” for “All assays (25.5 μl) were carried out at room temperature (21° C.) and were linear with respect to time and enzyme concentrations under the conditions used. Assays”
(§2) MKK1, JNK/SAPK1c, SAPK2a/p38, SAPK2b/p38β2, SAPK3/p38γ, SAPK4/p38δ, MAPK2/ERK2, MAPKAP-K1β, MAPKAP-K2, MSK1, PRAK, PKA, PKCα, PDK1, SGK, p70S6K, GSK3β, ROCK-II, PRK2, AMPK, CHK1, CHK2, CK2, PHK, LCK, were assayed according to Davies et al., (Davies, S. P., Reddy, H., Caivano, M. and Cohen, P. Biochem. J. 351, 95-105, 2000.
(§3) CSK and CDK2/cyclinA, were assayed according to Bain et al. (Bain J, McLauchlan H, Elliott M, Cohen P. Biochem J. 371, 199-204, 2003., except that ATP concentrations were either 5, 20 or 50 micromolar so that they were at or below the Km for ATP. The ATP concentrations used were as follows, 5 μM for assays of MKK1, SAPK3, SAPK4, GSK3β, PRK2 CK2 20 μm for assays of JNK, SAPK2β, MAPKAP-K2, MSK1, PRAK, PKA, […], PDK1, SGK, p70S6K, ROCK-II, CHK1, CHK2, CSK, CDK2, and 50 μM for assays of SAPK2a, MAPK2/ERK2, AMPK, LCK, PHK and MAPKAP-K1β.

Src = Src (Homo sapiens, UniProt P12931); assay: biochemical; conditions: read-out: Src activity as percentage of control without inhibitor; for remaining activity at 10 µM: inhibitor 10 μM
Chain of Src (P12931 whole entry, species assumed): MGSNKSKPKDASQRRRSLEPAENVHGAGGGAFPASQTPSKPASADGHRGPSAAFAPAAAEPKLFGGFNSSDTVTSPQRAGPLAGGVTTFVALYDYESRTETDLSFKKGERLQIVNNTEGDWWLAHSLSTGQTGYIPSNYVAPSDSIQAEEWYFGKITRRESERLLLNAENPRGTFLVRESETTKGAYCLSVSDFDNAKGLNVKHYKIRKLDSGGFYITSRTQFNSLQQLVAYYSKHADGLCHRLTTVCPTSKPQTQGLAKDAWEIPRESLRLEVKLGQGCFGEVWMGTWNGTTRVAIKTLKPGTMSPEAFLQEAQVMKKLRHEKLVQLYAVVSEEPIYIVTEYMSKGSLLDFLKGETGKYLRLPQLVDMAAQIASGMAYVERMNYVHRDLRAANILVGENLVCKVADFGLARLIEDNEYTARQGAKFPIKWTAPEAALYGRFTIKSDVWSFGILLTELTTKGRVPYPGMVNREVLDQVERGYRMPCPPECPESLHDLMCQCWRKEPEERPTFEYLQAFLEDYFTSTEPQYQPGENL
Procedure: as §1, with “Assays” for “All assays (25.5 μl) were carried out at room temperature (21° C.) and were linear with respect to time and enzyme concentrations under the conditions used. Assays”
The following kinases were assayed against the substrates indicated. Aurora B was assayed against the substrate peptide […] (300 μM), ERK8 and MST-2 were both assayed against MBP (0.33 mg/ml). IKKβ was assayed against the substrate peptide […] (300 μM), JNK3 was assayed against 3 μM ATF2[19-96]. MAPKAP-K3 and PKD1 were both assayed against […] (30 μM), MARK3 was assayed against CHKtide ([…]) substrate peptide (300 μM). MNK1 and MNK2 were both assayed against eIF4E protein (0.5 mg/ml). NEK7 was assayed against […] (300 μM), PIM2 was assayed against […] (300 μM), ΔPH PKBβ-S474D was assayed against Crosstide (30 μM), PLK1 was assayed against […] (300 μM). PRK2 was assayed against Long S6 peptide, […] (30 μM), RSK2 was assayed against […] (30 μM), SRC was assayed against cdc2 peptide, […], (300 μM) and SRPK1 was assayed against peptide […] (300 μM). All enzymes were diluted in 50 mM Tris/HCl pH 7.5, 0.1 mM EGTA, 1 mg/ml BSA, 0.1% β-mercaptoethanol buffer and assayed in an incubation containing 50 mM Tris/HCl pH7.5, 0.1 mM EGTA, 0.1% β-mercaptoethanol, CAMK-1 (5-20 mU) diluted in 50 mM Tris/HCl pH 7.5, 0.1 mM EGTA, 1 mg/ml BSA, 0.1% β-mercaptoethanol is assayed against substrate peptide […] in an incubation containing 50 mM Tris/HCl pH 7.5, 0.1 mM EGTA, 0.5 mM CaCl2, 0.3 μM calmodulin, 0.1% β-mereaptoethanol, 300 μM substrate peptide, 10 mM magnesium acetate and 0.05 mM [^33P-γ-ATP] (500-1000 cpm/pmole). EF2K (5-20 mU) diluted in 50 mM Hepes pH 6.6, 0.1% β-mercaptoethanol, 1 mg/ml BSA is assayed against a substrate peptide […] in an incubation containing 50 mM Hepes pH 6.6, 0.2 mM CaCl2, 0.3 μM Calmodulin, 0.05% b-mercaptoethanol, 300 μM substrate peptide, 10 mM magnesium acetate and 0.05 mM [^33P-γ-ATP] (500-1000 cpm/pmole).

SAPK3/p38g = biological target: T1, SAPK3/p38g (Homo sapiens, UniProt P53778); assay: SAPK3/p38g 33P kinase assay; assay type: biochemical; conditions: read-out: SAPK3/p38g activity as percentage of control without inhibitor
T1 sequence (P53778 1-367): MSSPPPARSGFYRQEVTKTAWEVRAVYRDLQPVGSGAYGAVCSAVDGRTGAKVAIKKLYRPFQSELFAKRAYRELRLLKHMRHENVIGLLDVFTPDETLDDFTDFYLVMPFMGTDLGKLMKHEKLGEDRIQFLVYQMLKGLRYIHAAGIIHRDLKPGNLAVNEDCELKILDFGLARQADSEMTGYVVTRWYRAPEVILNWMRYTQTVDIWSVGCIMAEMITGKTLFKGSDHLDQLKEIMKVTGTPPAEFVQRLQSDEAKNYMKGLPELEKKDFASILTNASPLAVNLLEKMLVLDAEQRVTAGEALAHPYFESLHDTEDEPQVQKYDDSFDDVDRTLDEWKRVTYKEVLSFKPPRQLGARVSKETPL
Procedure: as §1, §2, §3

SMILES | CK1 activity as percentage of control without inhibitor (CK1; inhibitor 1 μM) [%] | CK1 activity as percentage of control without inhibitor (CK1; inhibitor 10 μM) [%] | remaining activity at 10 µM (Lck) [%] | remaining activity at 1 µM (Src) [%] | remaining activity at 1 µM (SAPK3/p38g) [%] | remaining activity at 10 µM (SAPK3/p38g) [%] | remaining activity at 1 µM (Lck) [%] | remaining activity at 10 µM (Lck; inhibitor 10 μM) [%] | remaining activity at 1 µM (Src; inhibitor 1 μM) [%] | remaining activity at 10 µM (Src) [%] | remaining activity at 1 µM (SAPK3/p38g; inhibitor 1 μM) [%] | remaining activity at 10 µM (SAPK3/p38g; inhibitor 10 μM) [%]
COc1ccc2c(c1)[nH]c1c(C)nccc12 [Harmine] | 61 | 21 | 91 | 108 | 82 | 72 |  |  |  |  |  | 
COc1ccc2c3c([nH]c2c1)C(C)=NCC3 [Harmaline] | 84 | 65 |  |  |  |  | 77 | 87 | 47 | 65 | 98 | 94
CC1=NCCc2c1[nH]c1cc(O)ccc21 [Harmalol] | 83 | 48 |  |  |  |  | 85 | 68 | 101 | 83 | 98 | 92

Source: patent publication US20100063085A1, “METHOD OF TREATING LEARNING IMPAIRMENT IN DOWN'S SYNDROME SUBJECTS” (University Court of The University of Dundee, priority 2008, published 2010)
